# According to ChEMBL document CHEMBL4184275 (Bioorg Med Chem Lett, 2018):
# Bridge positions count the residues as written; N and C are the ends. Peptide text beside a SMILES is read from it.
# Tests used:
# Prolyl endopeptidase = target: T1, Prolyl endopeptidase (Homo sapiens, UniProt P48147); test: Inhibition of prolyl oligopeptidase (unknown origin)
# T1 sequence (P48147 whole entry): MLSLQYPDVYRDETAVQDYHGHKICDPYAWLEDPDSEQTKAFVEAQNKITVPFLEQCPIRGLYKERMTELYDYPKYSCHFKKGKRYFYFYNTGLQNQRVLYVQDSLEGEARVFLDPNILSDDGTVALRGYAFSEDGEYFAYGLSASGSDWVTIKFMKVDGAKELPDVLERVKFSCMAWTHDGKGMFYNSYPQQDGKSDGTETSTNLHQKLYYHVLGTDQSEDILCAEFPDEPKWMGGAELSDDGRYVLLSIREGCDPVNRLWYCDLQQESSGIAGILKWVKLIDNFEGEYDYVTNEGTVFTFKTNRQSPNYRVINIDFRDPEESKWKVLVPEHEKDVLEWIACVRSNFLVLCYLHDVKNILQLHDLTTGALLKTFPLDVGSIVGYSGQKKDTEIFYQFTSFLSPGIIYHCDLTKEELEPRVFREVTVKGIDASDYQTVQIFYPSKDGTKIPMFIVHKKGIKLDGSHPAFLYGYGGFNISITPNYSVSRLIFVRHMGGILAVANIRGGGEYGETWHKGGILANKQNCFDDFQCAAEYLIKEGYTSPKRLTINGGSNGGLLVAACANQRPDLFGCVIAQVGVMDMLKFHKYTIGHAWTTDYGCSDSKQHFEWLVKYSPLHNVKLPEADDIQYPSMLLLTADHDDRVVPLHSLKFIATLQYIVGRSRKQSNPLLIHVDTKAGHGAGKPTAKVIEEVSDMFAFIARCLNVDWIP
# HL-60 = test: cells; conditions: Homo sapiens
# Description: Antiproliferative activity against human HL60 cells
# [1] = target: T2, Prolyl oligopeptidase family protein (Flavobacterium psychrophilum (strain JIP02/86 / ATCC 49511), UniProt A6H249); test: Inhibition of Flavobacterium POP preincubated for 5 mins followed by Z-Gly-Pro-pNA substrate measured after 30 mins
# T2 sequence (A6H249 whole entry): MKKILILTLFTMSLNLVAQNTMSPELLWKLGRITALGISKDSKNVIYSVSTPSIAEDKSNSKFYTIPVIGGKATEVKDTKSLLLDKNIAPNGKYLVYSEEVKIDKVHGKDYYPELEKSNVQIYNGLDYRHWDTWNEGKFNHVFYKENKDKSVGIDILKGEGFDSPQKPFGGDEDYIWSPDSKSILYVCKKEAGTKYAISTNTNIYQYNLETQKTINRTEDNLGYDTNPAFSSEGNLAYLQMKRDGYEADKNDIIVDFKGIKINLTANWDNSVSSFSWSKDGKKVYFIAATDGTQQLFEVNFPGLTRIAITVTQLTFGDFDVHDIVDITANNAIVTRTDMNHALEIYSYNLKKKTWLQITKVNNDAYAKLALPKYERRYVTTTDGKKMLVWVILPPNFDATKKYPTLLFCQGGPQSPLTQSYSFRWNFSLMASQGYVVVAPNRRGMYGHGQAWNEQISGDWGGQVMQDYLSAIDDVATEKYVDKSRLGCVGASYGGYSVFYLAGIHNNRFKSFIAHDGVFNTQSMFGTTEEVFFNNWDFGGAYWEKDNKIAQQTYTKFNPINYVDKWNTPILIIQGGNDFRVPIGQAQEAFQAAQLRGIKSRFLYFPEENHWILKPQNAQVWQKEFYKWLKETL
# MCF7 = test: Antiproliferative activity against human MCF7 cells; format: functional, cell-based
SMILES,IC50 (Prolyl endopeptidase),IC50 (HL-60),IC50 [1],IC50 (MCF7)
CC[C@H](C)[C@H](NC(=O)[C@H](Cc1ccccc1)NC(=O)[C@@H](NC(=O)[C@H](Cc1cnc[nH]1)NC(=O)CNC(=O)CNC(=O)[C@H](Cc1ccccc1)NC(=O)[C@H](CC(C)C)NC(=O)[C@@H]1CC(=O)NCC(=O)N[C@@H](Cc2ccc(O)cc2)C(=O)N2CCC[C@H]2C(=O)N[C@@H](Cc2c[nH]c3ccccc23)C(=O)N[C@@H](Cc2c[nH]c3ccccc23)C(=O)N[C@@H](CC(=O)O)C(=O)N[C@@H](Cc2ccc(O)cc2)C(=O)N[C@@H](CCCNC(=N)N)C(=O)N1)[C@@H](C)O)C(=O)N[C@@H](CO)C(=O)N1CCC[C@H]1C(=O)O (GYPWWDYRDLFGGHTFISP-OH; lactam N-9),950 nM,> 20000 nM,,
CC(=O)Oc1c2oc3cc(O)c(O)cc3c2c(OC(C)=O)c2oc3cc(O)c(O)cc3c12 [POLYOZELLIN],,1100 nM,1200 nM,35100 nM
CC(=O)Oc1c(OC(C)=O)c2c3cc(O)c(O)cc3oc2c2oc3cc(O)c(O)cc3c12,,2000 nM,770 nM,26900 nM
CC[C@@]1(O)C(=O)OCc2c1cc1n(c2=O)Cc2cc3ccccc3nc2-1 [CAMPTOTHECIN],,6.7 nM,,
